From paper PMC5045412, “Inhibition of pro-HGF activation by SRI31215, a novel approach to block oncogenic HGF/MET signaling” (Oncotarget, 2016)

Key:
[1] = tested on: DiFi cells; test: Viability of DiFi cells with EGFR inhibitors and fibroblast conditioned medium; assay type: cell-based; details: gefitinib 0.5 μM or cetuximab 0.5 μg/ml, 72 hours
Procedure: Figure 6 Fibroblasts inhibit the proapoptotic activity of EGFRi in an HGF-dependent manner A. and B. DiFi cells were treated with gefitinib (0.5 μM) or cetuximab (0.5 μg/ml) in the absence or the presence of conditioned medium from fibroblasts and SRI 31215 and JNJ 38877605 as indicated. The viability was determined after 72 hours. In B, fibroblast conditioned medium was incubated with anti HGF or anti-IL1β antibodies. C. and D. DiFi cells were treated with gefitinib (C) or cetuximab (D) in the presence of conditioned medium from fibroblasts and inhibitors of HGF/MET signaling as indicated for 18h. Caspase activity was assessed by the Caspase-Glo 3/7 Assay from Promega.
Cell titer-glo luminescent cell viability assay kit was purchased from Promega. […] For clonogenic assay, cells were seeded in 6-well plates at a density of 400 cells per well, serum starved overnight, and treated as indicated. After colony formation (8-12 days), cells were stained with crystal violet and the number of colonies was determined using ImageQuantTL (GE Health Care Life Sciences).

[2] = tested on: trypsin; test: Protease panel, FRET peptide substrate; assay type: biochemical
Procedure: (§1) The inhibitory activity of SRI 31215 was tested in a panel of six proteases, which included matriptase, hepsin, HGFA, trypsin, thrombin and coagulation factor Xa. All six enzymes were purchased from R&D Systems. The assay buffer used was 50 mM Tris, 20 mM NaCl, 0.01% Tween 20, pH 8.0. The substrate was a custom FRET peptide based on the pro-HGF cleavage sequence (H2N-(EEdans)GKQLRVVNGG(KDabcyl)-amide) pre- pared by New England Peptide. All measurements were made using an Aminco-Bowman Series 2 Luminescence Spectrometer.

[3] = biological target: T1, hepsin (Homo sapiens, UniProt P05981); test: Protease panel, FRET peptide substrate; assay type: biochemical
T1 construct: purchased R&D Systems
Procedure: as §1

[4] = biological target: T2, HGFA (Homo sapiens, UniProt Q04756); test: Protease panel, FRET peptide substrate; assay type: biochemical
T2 construct: purchased R&D Systems
T2 sequence (Q04756 373-655): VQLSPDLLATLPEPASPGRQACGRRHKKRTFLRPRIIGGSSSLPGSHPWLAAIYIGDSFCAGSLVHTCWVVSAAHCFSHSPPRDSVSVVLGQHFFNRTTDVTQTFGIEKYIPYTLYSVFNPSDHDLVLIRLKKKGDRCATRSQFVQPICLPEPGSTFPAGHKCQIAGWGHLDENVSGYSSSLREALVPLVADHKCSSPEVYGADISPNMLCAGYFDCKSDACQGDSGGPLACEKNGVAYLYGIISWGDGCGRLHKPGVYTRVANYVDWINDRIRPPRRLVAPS
Procedure: as §1

[5] = biological target: T3, thrombin (Homo sapiens, UniProt P00734); test: Protease panel, FRET peptide substrate; assay type: biochemical
T3 construct: purchased R&D Systems
Procedure: as §1

[6] = biological target: T4, matriptase (Homo sapiens, UniProt Q9Y5Y6); test: Protease panel, FRET peptide substrate; assay type: biochemical
T4 construct: purchased R&D Systems
T4 sequence (Q9Y5Y6 1-855): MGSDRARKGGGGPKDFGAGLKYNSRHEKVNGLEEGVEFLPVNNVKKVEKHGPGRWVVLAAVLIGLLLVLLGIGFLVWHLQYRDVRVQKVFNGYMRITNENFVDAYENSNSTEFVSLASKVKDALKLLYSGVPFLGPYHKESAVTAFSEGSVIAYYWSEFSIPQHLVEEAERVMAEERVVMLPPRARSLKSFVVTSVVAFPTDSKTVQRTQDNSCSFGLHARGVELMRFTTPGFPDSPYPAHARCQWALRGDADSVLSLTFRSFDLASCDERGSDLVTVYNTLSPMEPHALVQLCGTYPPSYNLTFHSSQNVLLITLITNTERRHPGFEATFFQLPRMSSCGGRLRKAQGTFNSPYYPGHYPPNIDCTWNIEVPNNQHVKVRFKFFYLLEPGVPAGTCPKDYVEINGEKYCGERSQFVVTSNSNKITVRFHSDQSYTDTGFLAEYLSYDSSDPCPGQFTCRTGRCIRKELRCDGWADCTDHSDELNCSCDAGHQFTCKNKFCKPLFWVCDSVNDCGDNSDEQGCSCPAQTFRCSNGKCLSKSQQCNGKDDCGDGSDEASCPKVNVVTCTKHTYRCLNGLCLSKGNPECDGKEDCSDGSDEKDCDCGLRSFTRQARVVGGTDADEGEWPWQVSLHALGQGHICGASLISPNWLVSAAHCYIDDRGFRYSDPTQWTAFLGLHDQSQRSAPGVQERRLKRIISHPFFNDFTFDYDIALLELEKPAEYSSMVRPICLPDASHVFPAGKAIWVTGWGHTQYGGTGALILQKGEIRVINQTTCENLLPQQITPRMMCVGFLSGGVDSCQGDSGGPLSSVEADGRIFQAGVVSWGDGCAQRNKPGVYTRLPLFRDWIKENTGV
Procedure: as §1

[7] = tested on: DU145 cells; set-up: method as in PMID 26985294; details: dose-dependent; cited from earlier work
[8] = biological target: T5, recombinant human HGFA (Homo sapiens, UniProt Q04756); test: Proteolytic activation of pro-HGF by HGFA (immunoblotting); assay type: biochemical; details: SRI 31215 10 μM, HAI-1 20 nM, HGFA 1 nM
T5 construct: purchased R&D Systems
T5 sequence (Q04756 408-655 limits assumed): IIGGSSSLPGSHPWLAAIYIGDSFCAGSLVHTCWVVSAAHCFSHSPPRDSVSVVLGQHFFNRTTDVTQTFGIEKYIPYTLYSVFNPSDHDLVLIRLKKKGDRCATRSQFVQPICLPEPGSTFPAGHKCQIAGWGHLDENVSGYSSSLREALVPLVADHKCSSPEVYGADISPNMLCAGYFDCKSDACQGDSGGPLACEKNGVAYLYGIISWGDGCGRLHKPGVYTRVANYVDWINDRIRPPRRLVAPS
T5 sequence (Q04756 373-407 partner limits assumed): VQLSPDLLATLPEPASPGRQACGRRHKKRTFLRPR
Procedure: Recombinant human HAI-1, recombinant human HGFA, and recombinant human HGF propeptide (pro-HGF) were purchased from R&D Systems. SRI 31215 (10 μM) or recombinant human HAI-1 (20 nM) were mixed with activated recombinant human HGFA pro-peptide (1nM) in TNC buffer (pH 8.0) and incubated at room temperature for 30 minutes. Recombinant human pro-HGF (40 ng) was added and incubated at 37°C for 1 hour. The reaction was stopped by SDS-PAGE gel sample buffer and samples were boiled and separated by 12% PAGE. Proteins were transferred onto nitrocellulose membrane, blocked with 5% milk and immunoblotted using antibodies that recognize pro-HGF as well as α and β chains of activated HGF.

T1 sequence (P05981 whole entry): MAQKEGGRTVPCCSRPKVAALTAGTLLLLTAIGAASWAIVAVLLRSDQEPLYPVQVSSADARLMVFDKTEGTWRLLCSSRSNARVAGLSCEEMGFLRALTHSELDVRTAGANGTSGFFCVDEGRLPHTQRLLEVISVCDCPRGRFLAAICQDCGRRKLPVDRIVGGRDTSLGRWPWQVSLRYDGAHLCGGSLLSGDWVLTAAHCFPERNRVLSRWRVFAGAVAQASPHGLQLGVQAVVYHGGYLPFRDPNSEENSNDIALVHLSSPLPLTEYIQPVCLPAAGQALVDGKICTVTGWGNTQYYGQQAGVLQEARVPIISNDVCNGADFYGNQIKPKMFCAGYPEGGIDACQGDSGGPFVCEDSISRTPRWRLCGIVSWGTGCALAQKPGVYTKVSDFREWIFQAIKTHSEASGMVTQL

Row | SMILES | fibroblast-mediated resistance to gefitinib and cetuximab (viability) [1] | selectivity for trypsin [2] | IC50 [3] [nM] | IC50 [4] [nM] | selectivity for thrombin [5] | IC50 [6] [nM] | concentration at which biological activity (block of scattering) was detected [7] [μM] | HGFA-induced cleavage of pro-HGF into alpha and beta chains [8]
1 | Cn1cc(-c2ccc3nnc(C(F)(F)c4ccc5ncccc5c4)n3n2)cn1 [JNJ 38877605, reference compound] | prevent | – | – | – | – | – | – | –
2 | CC1CN(CC2CCN(Cc3ccccc3)CC2)C(=O)N(c2cccc(C(=N)N)c2)C1 (stereo not drawn) [SRI 31215, 3-(3-((1-benzylpiperidin-4-yl)methyl)-5-methyl-2-oxotetrahydropyrimidin-1(2H)-yl)benzimidamide] | prevent | acceptable | 650 | 300 | acceptable | 690 | 1 | inhibited
